System: adjuvant-induced arthritis
Assay: Adjuvant arthritis rat model
Format: in vivo, Lewis/CrlCrlj rats
Parameters: key to Redness scores (left hind-limb) / Redness scores (right hind-limb): 0 = no redness, 4 = severe redness; key to Scores of swelling in the instep (left hind-limb) / Scores of swelling in the instep (right hind-limb): 0 = no swelling, 4 = severe swelling; key to Scores of swelling in knuckle joints (left hind-limb) / Scores of swelling in knuckle joints (right hind-limb): 0 = no swelling, 4 = swelling of all the digits
Text: Male Lewis/CrlCrlj (SPF) rats were used to investigate the arthritis suppressing effect of a peptide of the present invention on adjuvant-induced arthritis. Forty-five rats were purchased from Charles River Laboratories Japan, Inc., and fed normal chow and allowed to acclimate for 7 days before used (the range of body weights was from 193.3 to 218.3 g at the beginning of use).
In an agate motor, dead tubercle bacilli (Mycobacterium butyricum; Lot No. 0260570, Difco) were pulverized. Then, liquid paraffin was added in small amounts to spread the pulverized bacilli well, so as to allow them to be emulsified at 1.0 mg/mL. The resultant emulsion was used after verification to ensure that the pulverized bacilli had been allowed to be finely emulsified, using an NM MICRONIZER (Nippon Seiki Co., Ltd.).
A right hind-limb of the respective rats was exposed, and 100 μL of the emulsion was intradermally injected once into a footpad of the right hind-limb using a 25G-needle attached syringe, to cause arthritis (day 0).
Each of the groups was comprised of 5 animals.
Arthritis was evaluated only for the hind-limbs, based on the criteria described below:
Score 0: no swelling Score 1: swelling of not more than two digits Score 2: swelling of three digits Score 3: swelling of four digits Score 4: swelling of all the digits
Score 0: no swelling Score 1: mild swelling Score 2: modest swelling Score 3: rather severe swelling Score 4: severe swelling
Score 0: no redness Score 1: mild redness Score 2: modest redness Score 3: rather severe redness Score 4: severe redness (iii) Measurement of Foot Volumes of Left And Right Hind-Limbs
Measurement was performed using a plethysmometer (UNICOM TK105). The increasing rate foot volume (percentage of paw swelling, paw swelling %) was calculated by the following formula:
Percent paw swelling (%)=[(Vt−Vo)/Vo]×100
In addition, in these examinations, the percent change of edema relative to day 10 post-adjuvant was calculated, in order to assess the effect of treatment with the test substances.
Data are expressed by mean±standard error. Since the uniformity of variance was not verified in testing between the negative and the positive control groups, testing for significant difference was performed by Aspin-Welch t-test. Since the uniformity of variance was not verified in testing for significant differences of the respective test-substance administered groups relative to the positive control group, assessment was performed by Dunnett's multiple comparison test after Kruskal-Wallis testing, using non-parametric procedures. Differences were considered to be statistically significant at p values of less than 0.05.

[1] = Day 0 post-adjuvant, 0.15 mg/kg oral from day 10
[2] = Day 0 post-adjuvant, 0.15 mg/kg oral, pre-administered group
[3] = Day 3 post-adjuvant, 0.15 mg/kg oral from day 10
[4] = Day 3 post-adjuvant, 0.15 mg/kg oral, pre-administered group
[5] = Day 7 post-adjuvant, 0.15 mg/kg oral from day 10
[6] = Day 7 post-adjuvant, 0.15 mg/kg oral, pre-administered group
[7] = Day 10 post-adjuvant, 0.15 mg/kg oral from day 10
[8] = Day 10 post-adjuvant, 0.15 mg/kg oral, pre-administered group
[9] = Day 14 post-adjuvant, 0.15 mg/kg oral from day 10
[10] = Day 14 post-adjuvant, 0.15 mg/kg oral, pre-administered group
[11] = Day 17 post-adjuvant, 0.15 mg/kg oral from day 10
[12] = Day 17 post-adjuvant, 0.15 mg/kg oral, pre-administered group
[13] = Day 21 post-adjuvant, 0.15 mg/kg oral from day 10
[14] = Day 21 post-adjuvant, 0.15 mg/kg oral, pre-administered group

## CN(Cc1cnc2nc(N)nc(N)c2n1)c1ccc(C(=O)N[C@@H](CCC(=O)O)C(=O)O)cc1 [Methotrexate]
[1]
  Redness scores (left hind-limb): 0.0 ± 0.0
  Redness scores (right hind-limb): 0.0 ± 0.0
  Scores of swelling in knuckle joints (left hind-limb): 0.0 ± 0.0
  Scores of swelling in knuckle joints (right hind-limb): 0.0 ± 0.0
  Scores of swelling in the instep (left hind-limb): 0.0 ± 0.0
  Scores of swelling in the instep (right hind-limb): 0.0 ± 0.0
  Total scores (left hind-limb): 0.0 ± 0.0
  Total scores (right hind-limb): 0.0 ± 0.0
[2]
  Redness scores (left hind-limb): 0.0 ± 0.0
  Redness scores (right hind-limb): 0.0 ± 0.0
  Scores of swelling in knuckle joints (left hind-limb): 0.0 ± 0.0
  Scores of swelling in knuckle joints (right hind-limb): 0.0 ± 0.0
  Scores of swelling in the instep (left hind-limb): 0.0 ± 0.0
  Scores of swelling in the instep (right hind-limb): 0.0 ± 0.0
  Total scores (left hind-limb): 0.0 ± 0.0
  Total scores (right hind-limb): 0.0 ± 0.0
[3]
  Redness scores (left hind-limb): 0.0 ± 0.0
  Redness scores (right hind-limb): 0.0 ± 0.0
  Scores of swelling in knuckle joints (left hind-limb): 0.0 ± 0.0
  Scores of swelling in knuckle joints (right hind-limb): 0.0 ± 0.0
  Scores of swelling in the instep (left hind-limb): 0.0 ± 0.0
  Scores of swelling in the instep (right hind-limb): 0.0 ± 0.0
  Total scores (left hind-limb): 0.0 ± 0.0
  Total scores (right hind-limb): 0.0 ± 0.0
[4]
  Redness scores (left hind-limb): 0.0 ± 0.0
  Redness scores (right hind-limb): 0.0 ± 0.0
  Scores of swelling in knuckle joints (left hind-limb): 0.0 ± 0.0
  Scores of swelling in knuckle joints (right hind-limb): 0.0 ± 0.0
  Scores of swelling in the instep (left hind-limb): 0.0 ± 0.0
  Scores of swelling in the instep (right hind-limb): 0.0 ± 0.0
  Total scores (left hind-limb): 0.0 ± 0.0
  Total scores (right hind-limb): 0.0 ± 0.0
[5]
  Redness scores (left hind-limb): 0.0 ± 0.0
  Redness scores (right hind-limb): 0.4 ± 0.2
  Scores of swelling in knuckle joints (left hind-limb): 0.4 ± 0.2
  Scores of swelling in knuckle joints (right hind-limb): 0.6 ± 0.2
  Scores of swelling in the instep (left hind-limb): 0.0 ± 0.0
  Scores of swelling in the instep (right hind-limb): 1.2 ± 0.2
  Total scores (left hind-limb): 0.4 ± 0.5
  Total scores (right hind-limb): 2.2 ± 0.8
[6]
  Redness scores (left hind-limb): 0.0 ± 0.0
  Redness scores (right hind-limb): 0.2 ± 0.2
  Scores of swelling in knuckle joints (left hind-limb): 0.0 ± 0.0
  Scores of swelling in knuckle joints (right hind-limb): 0.4 ± 0.2
  Scores of swelling in the instep (left hind-limb): 0.0 ± 0.0
  Scores of swelling in the instep (right hind-limb): 0.0 ± 0.0
  Total scores (left hind-limb): 0.0 ± 0.0
  Total scores (right hind-limb): 0.6 ± 0.4
[7]
  Redness scores (left hind-limb): 0.4 ± 0.2
  Redness scores (right hind-limb): 1.4 ± 0.4
  Scores of swelling in knuckle joints (left hind-limb): 0.6 ± 0.2
  Scores of swelling in knuckle joints (right hind-limb): 1.6 ± 0.4
  Scores of swelling in the instep (left hind-limb): 0.6 ± 0.2
  Scores of swelling in the instep (right hind-limb): 1.4 ± 0.4
  Total scores (left hind-limb): 1.6 ± 0.5
  Total scores (right hind-limb): 4.4 ± 1.5
[8]
  Redness scores (left hind-limb): 0.0 ± 0.0
  Redness scores (right hind-limb): 0.0 ± 0.0
  Scores of swelling in knuckle joints (left hind-limb): 0.2 ± 0.2
  Scores of swelling in knuckle joints (right hind-limb): 0.2 ± 0.2
  Scores of swelling in the instep (left hind-limb): 0.0 ± 0.0
  Scores of swelling in the instep (right hind-limb): 0.4 ± 0.2
  Total scores (left hind-limb): 0.2 ± 0.2
  Total scores (right hind-limb): 0.6 ± 0.4
[9]
  Redness scores (left hind-limb): 0.2 ± 0.2
  Redness scores (right hind-limb): 1.0 ± 0.3
  Scores of swelling in knuckle joints (left hind-limb): 0.8 ± 0.2
  Scores of swelling in knuckle joints (right hind-limb): 1.2 ± 0.2
  Scores of swelling in the instep (left hind-limb): 0.2 ± 0.2
  Scores of swelling in the instep (right hind-limb): 1.4 ± 0.4
  Total scores (left hind-limb): 1.2 ± 0.6
  Total scores (right hind-limb): 3.6 ± 1.1
[10]
  Redness scores (left hind-limb): 0.0 ± 0.0
  Redness scores (right hind-limb): 0.2 ± 0.2
  Scores of swelling in knuckle joints (left hind-limb): 0.4 ± 0.2
  Scores of swelling in knuckle joints (right hind-limb): 0.8 ± 0.2
  Scores of swelling in the instep (left hind-limb): 0.0 ± 0.0
  Scores of swelling in the instep (right hind-limb): 0.8 ± 0.2
  Total scores (left hind-limb): 0.4 ± 0.2
  Total scores (right hind-limb): 1.8 ± 0.2
[11]
  Redness scores (left hind-limb): 0.6 ± 0.4
  Redness scores (right hind-limb): 1.2 ± 0.2
  Scores of swelling in knuckle joints (left hind-limb): 0.4 ± 0.2
  Scores of swelling in knuckle joints (right hind-limb): 0.6 ± 0.2
  Scores of swelling in the instep (left hind-limb): 0.8 ± 0.6
  Scores of swelling in the instep (right hind-limb): 2.0 ± 0.4
  Total scores (left hind-limb): 1.8 ± 1.4
  Total scores (right hind-limb): 3.8 ± 0.9
[12]
  Redness scores (left hind-limb): 0.4 ± 0.4
  Redness scores (right hind-limb): 0.8 ± 0.4
  Scores of swelling in knuckle joints (left hind-limb): 0.6 ± 0.2
  Scores of swelling in knuckle joints (right hind-limb): 1.0 ± 0.3
  Scores of swelling in the instep (left hind-limb): 0.4 ± 0.2
  Scores of swelling in the instep (right hind-limb): 1.4 ± 0.2
  Total scores (left hind-limb): 1.4 ± 0.7
  Total scores (right hind-limb): 3.2 ± 0.8
[13]
  Redness scores (left hind-limb): 0.6 ± 0.6
  Redness scores (right hind-limb): 1.2 ± 0.5
  Scores of swelling in knuckle joints (left hind-limb): 0.6 ± 0.6
  Scores of swelling in knuckle joints (right hind-limb): 0.8 ± 0.6
  Scores of swelling in the instep (left hind-limb): 0.6 ± 0.6
  Scores of swelling in the instep (right hind-limb): 2.2 ± 0.6
  Total scores (left hind-limb): 1.8 ± 2.3
  Total scores (right hind-limb): 4.2 ± 2.0
[14]
  Redness scores (left hind-limb): 0.2 ± 0.2
  Redness scores (right hind-limb): 0.8 ± 0.2
  Scores of swelling in knuckle joints (left hind-limb): 0.4 ± 0.2
  Scores of swelling in knuckle joints (right hind-limb): 0.8 ± 0.2
  Scores of swelling in the instep (left hind-limb): 0.2 ± 0.2
  Scores of swelling in the instep (right hind-limb): 1.2 ± 0.4
  Total scores (left hind-limb): 0.8 ± 0.6
  Total scores (right hind-limb): 2.8 ± 0.6
